In one experiment the test system is pERK in H460 cells. The experiment can be described thus: Inhibition of KRas phosphorylation of ERK (Cisbio HTRF pERK assay). The following applies: Homo sapiens, NCI-H460, read-out: Inhibition (HTRF IC50) of KRas-mediated Phosphorylation of ERK, H460.
A further experiment concerns pERK in H358 cells. The experiment is described as above. The following applies: Homo sapiens, NCI-H358, read-out: Inhibition (HTRF IC50) of KRas-mediated Phosphorylation of ERK, H358.
The test system of a further experiment is pERK in PSN1 cells. The description is as above. The following applies: Homo sapiens, PSN1, 3 h, read-out: Inhibition (HTRF IC50) of KRas-mediated Phosphorylation of ERK, PSN1.
In another experiment the test system is pERK in MKN1 cells. The experiment is described as above. The following applies: Homo sapiens, MKN-1, 3 h, read-out: Inhibition (HTRF IC50) of KRas-mediated Phosphorylation of ERK, MKN1.
A further experiment deals with pERK in ASPC1 cells. The description is as above. The settings on record: Homo sapiens, ASPC1, read-out: Inhibition (HTRF IC50) of KRas-mediated Phosphorylation of ERK, AsPC-1.
The subject of a further experiment is pERK in A549 cells. Described as above. The following applies: Homo sapiens, A549, read-out: Inhibition (HTRF IC50) of KRas-mediated Phosphorylation of ERK, A549.
The test system of the next experiment is pERK in HCT116 cells. The description is as above. The following applies: Homo sapiens, HCT-116, read-out: Inhibition (HTRF IC50) of KRas-mediated Phosphorylation of ERK, HCT116.
The next experiment concerns pERK in H727 cells. The description is as above. The following applies: Homo sapiens, NCI-H727, read-out: Inhibition (HTRF IC50) of KRas-mediated Phosphorylation of ERK, H727.
Another experiment deals with KRas G12D (Homo sapiens, UniProt P01116, G12D). Description: biochemical.
Chain of KRas G12D (P01116 1-169 isoform P01116-2 G12D): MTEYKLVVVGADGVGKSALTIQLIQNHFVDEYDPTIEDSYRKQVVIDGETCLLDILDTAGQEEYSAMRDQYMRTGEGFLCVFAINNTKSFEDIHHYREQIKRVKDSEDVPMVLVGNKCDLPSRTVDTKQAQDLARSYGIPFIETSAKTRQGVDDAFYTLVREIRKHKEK
For a further experiment, the target named is KRas G12V (Homo sapiens, UniProt P01116, G12V). Description: biochemical.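 Note: KRas binding measured by TR-FRET displacement at room temperature, IC50 fitted from percent of control values.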
Chain of KRas G12V (P01116 1-169 isoform P01116-2 G12V): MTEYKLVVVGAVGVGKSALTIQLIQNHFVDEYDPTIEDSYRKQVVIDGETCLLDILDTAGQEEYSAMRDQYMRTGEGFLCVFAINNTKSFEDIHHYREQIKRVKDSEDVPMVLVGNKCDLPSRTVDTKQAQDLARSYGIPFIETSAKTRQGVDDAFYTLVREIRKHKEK
Another experiment concerns the target KRas G12R (Homo sapiens, UniProt P01116, G12R). Description: biochemical.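 Note: TR-FRET displacement assay of compound binding to KRas, read after one hour at room temperature, potency from a four-parameter fit of percent-of-control values.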
The test system of experiment [1] is phospho-ERK in NCI-H460 (Q61H) cells. The experiment can be described thus: Inhibition of KRas-mediated phosphorylation of ERK (in-cell western). In kind it is cell-based. The settings on record: Homo sapiens, NCI-H460, 3 h, 3 hours compound, phospho-ERK normalized to GAPDH. The method, boiled down:
(§1)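 Cells treated 3 h with compounds (0.5% DMSO), fixed in formaldehyde and methanol-permeabilized. In-cell western for phospho-ERK (Thr202/Tyr204) normalized to GAPDH, as % of DMSO control; IC50 by 4-parameter fit.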

The test system of experiment [2] is phospho-ERK in NCI-H727 (G12V) cells. Described as above. In kind it is cell-based. The following applies: Homo sapiens, NCI-H727, 3 h, 3 hours compound, phospho-ERK normalized to GAPDH. In short, it runs like this: as §1
The test system of experiment [3] is phospho-ERK in AsPC-1 (G12D) cells. The description is as above. The following applies: Homo sapiens, ASPC1, 3 h, 3 hours compound, phospho-ERK normalized to GAPDH. In kind it is cell-based. In short, it runs like this:
as §1

Another experiment deals with KRas G12S (Homo sapiens, UniProt P01116, G12S). Description: biochemical.
Chain of KRas G12S (P01116 1-169 isoform P01116-2 G12S): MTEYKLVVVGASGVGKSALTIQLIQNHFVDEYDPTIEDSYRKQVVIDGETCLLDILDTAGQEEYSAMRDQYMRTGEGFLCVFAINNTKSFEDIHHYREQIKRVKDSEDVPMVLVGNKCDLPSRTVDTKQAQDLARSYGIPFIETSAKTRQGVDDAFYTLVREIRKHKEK
A further experiment has as its target KRas G12A (Homo sapiens, UniProt P01116, G12A). The experiment can be described thus: biochemical.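 Note: binding to KRas measured by TR-FRET displacement after one hour at room temperature, IC50 from a four-parameter fit of percent-of-control values.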
A further experiment addresses KRas WT (Homo sapiens, UniProt P01116). Description: biochemical.
Another experiment has as its target KRas G12C (Homo sapiens, UniProt P01116, G12C). Description: biochemical.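 Note: binding to KRas assessed by TR-FRET displacement after one hour incubation at room temperature, potency fitted from percent-of-control values.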

In US12398154B2, “Azaquinazoline pan-KRas inhibitors” (Mirati Therapeutics, Inc., priority 2020, dated 2025) one finds IC50 data, which are given here for nine compounds.

The structures appear in SMILES notation. Bounds are passed on as bounds.

Chain of KRas G12R (P01116 1-169 isoform P01116-2 G12R): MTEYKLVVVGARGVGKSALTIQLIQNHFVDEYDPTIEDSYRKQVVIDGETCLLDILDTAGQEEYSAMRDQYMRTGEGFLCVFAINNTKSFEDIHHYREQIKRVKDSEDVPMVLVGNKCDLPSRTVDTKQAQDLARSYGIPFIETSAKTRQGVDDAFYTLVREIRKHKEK
Chain of KRas WT (P01116 1-169 isoform P01116-2): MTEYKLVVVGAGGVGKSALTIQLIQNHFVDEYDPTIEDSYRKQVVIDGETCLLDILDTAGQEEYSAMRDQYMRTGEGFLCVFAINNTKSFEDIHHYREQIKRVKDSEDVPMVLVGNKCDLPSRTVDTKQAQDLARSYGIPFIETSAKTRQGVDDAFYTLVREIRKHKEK
Chain of KRas G12C (P01116 1-169 isoform P01116-2 G12C): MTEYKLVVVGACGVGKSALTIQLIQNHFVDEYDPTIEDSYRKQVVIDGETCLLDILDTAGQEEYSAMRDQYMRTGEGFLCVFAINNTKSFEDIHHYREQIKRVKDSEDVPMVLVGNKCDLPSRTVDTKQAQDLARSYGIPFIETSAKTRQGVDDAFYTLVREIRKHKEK
Chain of KRas G12A (P01116 1-169 isoform P01116-2 G12A): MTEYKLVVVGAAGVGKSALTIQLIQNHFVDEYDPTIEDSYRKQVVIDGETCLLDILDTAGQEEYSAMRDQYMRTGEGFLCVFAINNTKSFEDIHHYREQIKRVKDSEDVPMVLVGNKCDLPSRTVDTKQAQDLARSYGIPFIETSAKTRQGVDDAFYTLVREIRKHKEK

Consider `CCc1c(F)ccc2cc(O)cc(-c3ncc4c(N5CCC[C@]6(C5)C[C@H](O)C6)nc(OC[C@@]56CCCN5C[C@H](F)C6)nc4c3F)c12` (single isomer, unassigned) [Example 323], for which the IC50 in the experiment with pERK in H460 cells is 11 nM; with pERK in H358 cells it was 2 nM; in the experiment with pERK in PSN1 cells it was 600 nM; in the experiment on pERK in MKN1 cells it was 2 nM; with pERK in ASPC1 cells, 8 nM; with pERK in A549 cells, 19 nM. Further, the results for the IC50 with pERK in HCT116 cells and in the experiment with pERK in H727 cells were 22 nM and 8 nM, respectively.

As to `CCc1c(F)ccc2cc(O)cc(-c3ncc4c(N5CCC[C@]6(C5)C[C@@H](O)C6)nc(OC[C@@]56CCCN5C[C@H](F)C6)nc4c3F)c12` (single isomer, unassigned) [Example 324], the IC50 amounted to 99 nM with pERK in H460 cells; 14 nM in the experiment with pERK in H358 cells; 1440 nM in the experiment on pERK in PSN1 cells; 3 nM with pERK in MKN1 cells; 35 nM with pERK in ASPC1 cells; 95 nM in the experiment with pERK in A549 cells. Moreover, the IC50 in the experiment on pERK in HCT116 cells is 61 nM; in the experiment on pERK in H727 cells it was 22 nM.

In the case of `CCc1c(F)ccc2cc(O)cc(-c3ncc4c(N5CC(c6ccncc6)C5)nc(OC[C@@]56CCCN5C[C@H](F)C6)nc4c3F)c12` [Example 172, 5-ethyl-6-fluoro-4-(8-fluoro-2-(((2R,7aS)-2-fluorohexahydro-1H-pyrrolizin-7a-yl)methoxy)-4-(3-(pyridin-4-yl)azetidin-1-yl)pyrido[4,3-d]pyrimidin-7-yl)naphthalen-2-ol], the half-inhibitory concentration (IC50) against KRas G12D is 9 nM; with pERK in H460 cells, 32 nM; with pERK in H358 cells it was 6 nM; at KRas G12V it was no more than 2 nM; in the experiment on pERK in PSN1 cells, no less than 10000 nM; on KRas G12R, no more than 2 nM. Besides, the IC50 was 41 nM with pERK in MKN1 cells; 96 nM in the experiment on pERK in ASPC1 cells; 170 nM in the experiment with pERK in HCT116 cells; 79 nM in experiment [1]; 192 nM in experiment [2]; 481 nM in experiment [3]. Moreover, the IC50 in the experiment on pERK in H727 cells was 26 nM.

Regarding `CCc1c(F)ccc2cc(O)cc(-c3ncc4c(N5CCCC(C#N)CC5)nc(OC[C@@]56CCCN5C[C@H](F)C6)nc4c3F)c12` (some centres unmarked) [Example 173], the IC50 on KRas G12D came out at 6 nM; in the experiment on pERK in H460 cells, 176 nM; in the experiment on pERK in H358 cells, 95 nM; against KRas G12V, 4 nM; with pERK in PSN1 cells it was 5540 nM; on KRas G12R it was 6 nM. Also, the IC50 in the experiment on pERK in MKN1 cells came to 42 nM; in the experiment on pERK in ASPC1 cells it was 56 nM; in the experiment with pERK in HCT116 cells it was 454 nM; in experiment [1], 145 nM; in [2], 304 nM; in experiment [3] it was 180 nM. Besides, in the experiment on pERK in H727 cells, the IC50 worked out at 263 nM.

Regarding `CCc1c(F)ccc2cc(O)cc(-c3ncc4c(N5CCCC6(C5)NC(=O)NC6=O)nc(OC[C@@]56CCCN5C[C@H](F)C6)nc4c3F)c12` (some centres unmarked) [Example 196], the IC50 against KRas G12D is no more than 2 nM; with pERK in H460 cells it was 33 nM; in the experiment on pERK in H358 cells it was 31 nM; at KRas G12V, no more than 2 nM; in the experiment with pERK in PSN1 cells, 314 nM; against KRas G12R, no more than 2 nM. Also, the IC50 came out at 39 nM in the experiment with pERK in MKN1 cells; 97 nM in the experiment on pERK in ASPC1 cells; 114 nM with pERK in HCT116 cells; 48 nM in experiment [1]; 452 nM in experiment [2]; 361 nM in experiment [3]. Also, the 50% inhibitory concentration (IC50) in the experiment with pERK in H727 cells came to 167 nM.

Turning to `CCc1c(F)ccc2cc(O)cc(-c3ncc4c(N5CCC[C@]6(C5)NC(=O)NC6=O)nc(OC[C@@]56CCCN5C[C@H](F)C6)nc4c3F)c12` [Example 307, (R)-7-(7-(8-ethyl-7-fluoro-3-hydroxynaphthalen-1-yl)-8-fluoro-2-(((2R,7aS)-2-fluorohexahydro-1H-pyrrolizin-7a-yl)methoxy)pyrido[4,3-d]pyrimidin-4-yl)-1,3,7-triazaspiro[4.5]decane-2,4-dione], the IC50 on KRas G12D was no more than 2 nM; in the experiment with pERK in H460 cells it was 12 nM; in the experiment on pERK in H358 cells, 15 nM; against KRas G12V, no more than 2 nM; in the experiment on pERK in PSN1 cells, 106 nM; on KRas G12R, no more than 2 nM. The IC50 came out at 5 nM in the experiment on pERK in MKN1 cells; 58 nM with pERK in ASPC1 cells; 33 nM in the experiment on pERK in HCT116 cells; 11 nM in [1]; 215 nM in experiment [2]; 117 nM in experiment [3]. Moreover, the IC50 with pERK in H727 cells is 85 nM.

Turning to `CCc1c(F)ccc2cc(O)cc(-c3ncc4c(N5CCCCCCC5)nc(OC[C@@]56CCCN5C[C@H](F)C6)nc4c3F)c12` [Example 325, 4-(4-(azocan-1-yl)-8-fluoro-2-(((2R,7aS)-2-fluorohexahydro-1H-pyrrolizin-7a-yl)methoxy)pyrido[4,3-d]pyrimidin-7-yl)-5-ethyl-6-fluoronaphthalen-2-ol], the IC50 was no more than 2 nM on KRas G12S; no more than 2 nM on KRas G12D; 61 nM in the experiment on pERK in H460 cells; no more than 2 nM at KRas G12A; 164 nM with pERK in H358 cells; no more than 2 nM against KRas G12V. Moreover, the IC50 against KRas WT is no more than 2 nM; at KRas G12C, no more than 2 nM; with pERK in PSN1 cells it was 5150 nM; against KRas G12R it was no more than 2 nM; in the experiment on pERK in MKN1 cells, 17 nM; with pERK in ASPC1 cells it was 49 nM. For the same compound, the IC50 in the experiment with pERK in HCT116 cells came to 56 nM; with pERK in H727 cells, 45 nM.

For `CCc1c(F)ccc2cc(O)cc(-c3ncc4c(N5CCC[C@@](C)(O)C5)nc(OCC5(CN6CCCCC6)CC5)nc4c3F)c12` [Example 331, (R)-1-(7-(8-ethyl-7-fluoro-3-hydroxynaphthalen-1-yl)-8-fluoro-2-((1-(piperidin-1-ylmethyl)cyclopropyl)methoxy)pyrido[4,3-d]pyrimidin-4-yl)-3-methylpiperidin-3-ol], the IC50 against KRas G12D is no more than 2 nM; in the experiment with pERK in H460 cells, 16 nM; with pERK in H358 cells, 3 nM; on KRas G12V, no more than 2 nM; at KRas G12R, no more than 2 nM; in the experiment on pERK in MKN1 cells, 1 nM. Moreover, the IC50 in the experiment on pERK in ASPC1 cells came to 4 nM; in the experiment on pERK in A549 cells, 6 nM; in the experiment with pERK in HCT116 cells, 27 nM; with pERK in H727 cells it was 35 nM.

With `O=S1(=O)NC[C@]2(CCCN(c3nc(OC[C@@]45CCCN4C[C@H](F)C5)nc4c(F)c(-c5cc(O)cc6ccc(F)c(Cl)c56)ncc34)C2)N1` [Example 515, (R)-7-(7-(8-chloro-7-fluoro-3-hydroxynaphthalen-1-yl)-8-fluoro-2-(((2R,7aS)-2-fluorotetrahydro-1H-pyrrolizin-7a(SB)-yl)methoxy)pyrido[4,3-d]pyrimidin-4-yl)-2-thia-1,3,7-triazaspiro[4.5]decane2,2-dioxide], the IC50 against KRas G12D was no more than 2 nM; with pERK in H460 cells, 19 nM; with pERK in H358 cells, 7 nM; on KRas G12V, no more than 2 nM; against KRas G12R it was no more than 2 nM; with pERK in ASPC1 cells, 35 nM. Also, the IC50 was found to be 36 nM with pERK in A549 cells, 24 nM in the experiment on pERK in HCT116 cells and 19 nM with pERK in H727 cells.
